Measurements: ChEMBL document CHEMBL1681651, “A broad spectrum anticancer nucleoside with selective toxicity against human colon cells in vitro” (2011)

Experiments:
Format in all cases: functional
[1] = test system: SR; assay: Growth inhibition of human SR cells assessed as cell growth at 10 uM after 48 hrs by SRB assay; settings: read-out: Activity
[2] = test system: SF-539; assay: Growth inhibition of human SF539 cells assessed as cell growth at 10 uM after 48 hrs by SRB assay; settings: SF-539, 48 h, read-out: Activity
[3] = test system: PC-3; assay: Growth inhibition of human PC3 cells assessed as cell growth at 10 uM after 48 hrs by SRB assay; settings: PC-3, 48 h, read-out: Activity
[4] = test system: OVCAR-3; assay: Growth inhibition of human OVCAR3 cells assessed as cell growth at 10 uM after 48 hrs by SRB assay; settings: OVCAR-3, 48 h, read-out: Activity
[5] = test system: HOP-92; assay: Growth inhibition of human HOP92 cells assessed as cell growth at 10 uM after 48 hrs by SRB assay; settings: HOP-92, 48 h, read-out: Activity
[6] = test system: OVCAR-4; assay: Growth inhibition of human OVCAR4 cells assessed as cell growth at 100 uM after 48 hrs by SRB assay; settings: OVCAR-4, 48 h, read-out: Activity
[7] = test system: HOP-62; assay: Growth inhibition of human HOP62 cells assessed as cell growth at 0.1 uM after 48 hrs by SRB assay; settings: HOP-62, 48 h, read-out: Activity
[8] = test system: HOP-62; assay: Growth inhibition of human HOP62 cells after 48 hrs by […] growth inhibition assay; settings: HOP-62, 48 h
[9] = test system: A498; assay: Growth inhibition of human A498 cells assessed as cell growth at 1 mM after 48 hrs by SRB assay; settings: A498, 48 h, read-out: Activity
[10] = test system: SNB-19; assay: Growth inhibition of human SNB19 cells assessed as cell growth at 0.1 uM after 48 hrs by SRB assay; settings: SNB-19, 48 h, read-out: Activity
[11] = test system: SNB-75; assay: Growth inhibition of human SNB75 cells assessed as cell growth at 0.1 uM after 48 hrs by SRB assay; settings: SNB-75, 48 h, read-out: Activity
[12] = test system: OVCAR-8; assay: Growth inhibition of human OVCAR8 cells assessed as cell growth at 1 mM after 48 hrs by SRB assay; settings: OVCAR-8, 48 h, read-out: Activity
[13] = test system: COLO 205; assay: Growth inhibition of human COLO205 cells assessed as cell growth at 100 uM after 48 hrs by SRB assay; settings: COLO 205, 48 h, read-out: Activity
[14] = test system: 786-0; assay: Growth inhibition of human 786-0 cells assessed as cell growth at 1 mM after 48 hrs by SRB assay; settings: 786-0, 48 h, read-out: Activity
[15] = test system: NCI-H522; assay: Growth inhibition of human NCI-H522 cells assessed as cell growth at 100 uM after 48 hrs by SRB assay; settings: NCI-H522, 48 h, read-out: Activity
[16] = test system: LOX IMVI; assay: Growth inhibition of human LOXIMVI cells after 48 hrs by […] growth inhibition assay
[17] = test system: MDA-MB-435; assay: Growth inhibition of human MDA-MB-435 cells after 48 hrs by SRB assay; settings: MDA-MB-435, 48 h
[18] = test system: SK-MEL-28; assay: Growth inhibition of human SK-MEL-28 cells after 48 hrs by […] growth inhibition assay; settings: SK-MEL-28, 48 h
[19] = test system: RXF 393; assay: Growth inhibition of human RXF393 cells assessed as cell growth at 0.1 uM after 48 hrs by SRB assay; settings: RXF 393, 48 h, read-out: Activity
[20] = test system: SK-MEL-5; assay: Growth inhibition of human SK-MEL-5 cells assessed as cell growth at 100 uM after 48 hrs by SRB assay; settings: SK-MEL-5, 48 h, read-out: Activity
[21] = test system: HOP-92; assay: Growth inhibition of human HOP92 cells assessed as cell growth at 100 uM after 48 hrs by SRB assay; settings: HOP-92, 48 h, read-out: Activity
[22] = test system: SNB-19; assay: Growth inhibition of human SNB19 cells assessed as cell growth at 100 uM after 48 hrs by SRB assay; settings: SNB-19, 48 h, read-out: Activity
[23] = test system: SK-MEL-5; assay: Growth inhibition of human SK-MEL-5 cells assessed as cell growth at 1 mM after 48 hrs by SRB assay; settings: SK-MEL-5, 48 h, read-out: Activity
[24] = test system: UO-31; assay: Growth inhibition of human UO31 cells assessed as cell growth at 100 uM after 48 hrs by SRB assay; settings: UO-31, 48 h, read-out: Activity
[25] = test system: A549; assay: Growth inhibition of human A549 cells after 48 hrs by […] growth inhibition assay; settings: A549, 48 h
[26] = test system: OVCAR-8; assay: Growth inhibition of human OVCAR8 cells assessed as cell growth at 100 uM after 48 hrs by SRB assay; settings: OVCAR-8, 48 h, read-out: Activity
[27] = test system: OVCAR-3; assay: Growth inhibition of human OVCAR3 cells after 48 hrs by […] growth inhibition assay; settings: OVCAR-3, 48 h
[28] = test system: BT-549; assay: Growth inhibition of human BT549 cells after 48 hrs by […] growth inhibition assay; settings: BT-549, 48 h
[29] = test system: CAKI-1; assay: Growth inhibition of human Caki1 cells assessed as cell growth at 100 uM after 48 hrs by SRB assay; settings: CAKI-1, 48 h, read-out: Activity
[30] = test system: KM12; assay: Growth inhibition of human KM12 cells assessed as cell growth at 1 uM after 48 hrs by SRB assay; settings: KM12, 48 h, read-out: Activity
[31] = test system: SK-MEL-2; assay: Growth inhibition of human SK-MEL-2 cells assessed as cell growth at 0.1 uM after 48 hrs by SRB assay; settings: SK-MEL-2, 48 h, read-out: Activity
[32] = read-out: LC50 (the source's name)
[33] = read-out: pLC50 (the source's name) (converted)

Compound: CNC(=O)OC[C@H]1O[C@@H](n2cnc3c(NC(=O)Nc4ccccc4)ncnc32)[C@H](O[Si](C)(C)C(C)(C)C)[C@@H]1O[Si](C)(C)C(C)(C)C
- growth at 10 µM [1]: 77.9%
- growth at 10 µM [2]: 97.1%
- growth at 10 µM [3]: 58.9%
- growth at 10 µM [4]: 107%
- growth at 10 µM [5]: 54.7%

Compound: CNC(=O)NC[C@H]1O[C@@H](n2cnc3c(NC(=O)Nc4ccccc4)ncnc32)[C@H](O[Si](C)(C)C(C)(C)C)[C@@H]1O[Si](C)(C)C(C)(C)C
- growth at 100 µM [6]: 7%
- growth at 0.1 µM [7]: 102%
- GI50 ([8]; read-out: GI50): 4.98 µM
- CC50 [8, 32]: 48 µM
- TGI ([8]; read-out: TGI): 17.1 µM
- GI50 ([8]; read-out: pGI50 (converted)): 5.01 µM
- CC50 [8, 33]: 47.9 µM
- TGI ([8]; read-out: pTGI (converted)): 17 µM
- growth at 10 µM [2]: 91%
- growth at 1000 µM [9]: -76%
- growth at 0.1 µM [10]: 97%
- growth at 0.1 µM [11]: 94%
- growth at 1000 µM [12]: -9%
- growth at 100 µM [13]: -95%
- growth at 1000 µM [14]: -80%
- growth at 100 µM [15]: -15%
- GI50 ([16]; read-out: GI50): 1.82 µM
- CC50 [16, 32]: 6.21 µM
- TGI ([16]; read-out: TGI): 3.36 µM
- GI50 ([16]; read-out: pGI50 (converted)): 1.82 µM
- CC50 [16, 33]: 6.17 µM
- TGI ([16]; read-out: pTGI (converted)): 3.39 µM
- GI50 ([17]; read-out: GI50): 3.41 µM
- LC50 ([17]; read-out: LC50): > 100 µM
- TGI ([17]; read-out: TGI): 29.1 µM
- GI50 ([17]; read-out: pGI50 (converted)): 3.39 µM
- LC50 ([17]; read-out: pLC50 (converted)): > 100 µM
- TGI ([17]; read-out: pTGI (converted)): 28.8 µM
- growth at 10 µM [3]: 83%
- CC50 [18, 32]: 28.3 µM
- growth at 0.1 µM [19]: 98%
- growth at 100 µM [20]: -42%
- growth at 100 µM [21]: -28%
- growth at 10 µM [4]: 113%
- growth at 100 µM [22]: 29%
- growth at 1000 µM [23]: -99%
- growth at 100 µM [24]: -2%
- GI50 ([25]; read-out: GI50): 2.9 µM
- CC50 [25, 32]: > 100 µM
- TGI ([25]; read-out: TGI): 12.8 µM
- GI50 ([25]; read-out: pGI50 (converted)): 2.88 µM
- CC50 [25, 33]: > 100 µM
- TGI ([25]; read-out: pTGI (converted)): 12.9 µM
- growth at 100 µM [26]: 13%
- GI50 ([27]; read-out: GI50): 2.6 µM
- CC50 [27, 32]: 98.2 µM
- TGI ([27]; read-out: TGI): 5.54 µM
- GI50 ([27]; read-out: pGI50 (converted)): 2.63 µM
- CC50 [27, 33]: 97.7 µM
- TGI ([27]; read-out: pTGI (converted)): 5.5 µM
- GI50 ([28]; read-out: GI50): 2.94 µM
- CC50 [28, 32]: > 100 µM
- TGI ([28]; read-out: TGI): 8.18 µM
- GI50 ([28]; read-out: pGI50 (converted)): 2.95 µM
- CC50 [28, 33]: > 100 µM
- TGI ([28]; read-out: pTGI (converted)): 8.13 µM
- growth at 10 µM [5]: 69%
- growth at 100 µM [29]: -11%
- growth at 1 µM [30]: 111%
- growth at 0.1 µM [31]: 108%

Compound: CNC(=O)NC[C@H]1O[C@@H](n2cnc3c(NC(=O)Nc4ccccc4)ncnc32)[C@H](O[Si](C)(C)C(C)(C)C)[C@@H]1CC(=O)N(C)OC
- growth at 100 µM [6]: 60%
- growth at 10 µM [1]: 62%
- growth at 0.1 µM [7]: 92%
- GI50 ([8]; read-out: GI50): 24.9 µM
- CC50 [8, 32]: > 100 µM
- TGI ([8]; read-out: TGI): > 100 µM
- GI50 ([8]; read-out: pGI50 (converted)): 25.1 µM
- CC50 [8, 33]: > 100 µM
- TGI ([8]; read-out: pTGI (converted)): > 100 µM
- growth at 10 µM [2]: 89%
- growth at 1000 µM [9]: -16%
- growth at 0.1 µM [10]: 94%
- growth at 0.1 µM [11]: 94%
- growth at 1000 µM [12]: 22%
- growth at 100 µM [13]: 55%
- growth at 1000 µM [14]: 8%
- growth at 100 µM [15]: 51%
- GI50 ([16]; read-out: GI50): 7.3 µM
- CC50 [16, 32]: > 100 µM
- TGI ([16]; read-out: TGI): > 100 µM
- GI50 ([16]; read-out: pGI50 (converted)): 7.24 µM
- CC50 [16, 33]: > 100 µM
- TGI ([16]; read-out: pTGI (converted)): > 100 µM
- GI50 ([17]; read-out: GI50): 10.9 µM
- LC50 ([17]; read-out: LC50): > 100 µM
- TGI ([17]; read-out: TGI): > 100 µM
- GI50 ([17]; read-out: pGI50 (converted)): 11 µM
- LC50 ([17]; read-out: pLC50 (converted)): > 100 µM
- TGI ([17]; read-out: pTGI (converted)): > 100 µM
- GI50 ([18]; read-out: GI50): 7.77 µM
- CC50 [18, 32]: > 100 µM
- TGI ([18]; read-out: TGI): > 100 µM
- GI50 ([18]; read-out: pGI50 (converted)): 7.76 µM
- CC50 [18, 33]: > 100 µM
- TGI ([18]; read-out: pTGI (converted)): > 100 µM
- growth at 0.1 µM [19]: 103%
- growth at 100 µM [20]: 38%
- growth at 100 µM [21]: 27%
- growth at 10 µM [4]: 100%
- growth at 100 µM [22]: 61%
- growth at 1000 µM [23]: 11%
- growth at 100 µM [24]: 46%
- GI50 ([25]; read-out: GI50): 9.35 µM
- CC50 [25, 32]: > 100 µM
- TGI ([25]; read-out: TGI): > 100 µM
- GI50 ([25]; read-out: pGI50 (converted)): 9.33 µM
- CC50 [25, 33]: > 100 µM
- TGI ([25]; read-out: pTGI (converted)): > 100 µM
- growth at 100 µM [26]: 48%
- GI50 ([27]; read-out: GI50): 7.11 µM
- CC50 [27, 32]: > 100 µM
- TGI ([27]; read-out: TGI): > 100 µM
- GI50 ([27]; read-out: pGI50 (converted)): 7.08 µM
- CC50 [27, 33]: > 100 µM
- TGI ([27]; read-out: pTGI (converted)): > 100 µM
- GI50 ([28]; read-out: GI50): 29 µM
- CC50 [28, 32]: > 100 µM
- TGI ([28]; read-out: TGI): > 100 µM
- GI50 ([28]; read-out: pGI50 (converted)): 28.8 µM
- CC50 [28, 33]: > 100 µM
- TGI ([28]; read-out: pTGI (converted)): > 100 µM
- growth at 10 µM [5]: 67%
- growth at 100 µM [29]: 57%
- growth at 1 µM [30]: 108%
- growth at 0.1 µM [31]: 85%
